Patent US4791197A, “Cephalosporin compounds” (priority 1984, dated 1988)
Counter-ions that a name gives are not always drawn.

Legend:
Experiment in all cases: MIC against growth of bacteria by agar-dilution method
Type in all cases: cell-based
[1] = system: Escherichia coli NIHJ JC-2; conditions: NIHJJC2
Description: (§1) The compounds of this invention are all novel compounds.

[2] = system: Klebsiella pneumoniae PCI 602; conditions: PCI602
Description: as §1

[3] = system: Salmonella typhimurium LT-2; conditions: Salmonella enterica
Description: as §1

Proteus mirabillis GN 79 = system: Proteus mirabillis GN 79
Description: as §1

[4] = system: Serratia marcescens No. 1
Description: as §1

[5] = system: Staphylococcus aureus 209P JC-1
Description: as §1

[6] = system: Staphylococcus aureus Smith
Description: as §1

Proteus vulgaris GN 76 = conditions: GN76
Description: as §1

Proteus rettgeri GN 624 = conditions: Providencia rettgeri, GN624
Description: as §1

[7] = system: Pseudomonas aeruginosa MB 3833; conditions: MB3833
Description: as §1

SMILES	MIC [1] [µg/mL]	MIC [2] [µg/mL]	MIC [3] [µg/mL]	MIC (Proteus mirabillis GN 79) [µg/mL]	MIC [4] [µg/mL]	MIC [5] [µg/mL]	MIC [6] [µg/mL]	MIC (Proteus vulgaris GN 76) [µg/mL]	MIC (Proteus rettgeri GN 624) [µg/mL]	MIC [7] [µg/mL]
Cc1nnc(SCC2=C(C(=O)O)N3C(=O)C(NC(=O)/C(=C\C(=O)O)c4csc(N)n4)C3SC2)s1 (stereo not drawn) [Example 2, 7-[2-(2-aminothiazol-4-yl)-2-carboxymethylene-acetamido]-3-(5-methyl-1,3,4-thiadiazol-2-yl)thiomethyl-3-cephem-4-carboxylic acid (Z-isomer) trifluoroacetate]	0.78	0.78	0.39	0.2	0.1	3.13	3.13	0.39	≤ 0.025	> 50
C[n+]1ccc(SCC2=C(C(=O)O)N3C(=O)C(NC(=O)/C(=C\C(=O)O)c4csc(N)n4)C3SC2)cc1 (stereo not drawn) [Example 7, 7-[2-(2-aminothiazol-4-yl)-2-carboxymethyleneacetamido]-3-(1-methylpyridinium-4-yl)thiomethyl-3-cephem-4-carboxylic acid (Z-isomer) trifluoroacetate]	0.39	0.78	0.39	1.56	0.78	0.2	0.39	3.13	0.1	> 50
C[n+]1ccc(SCC2=C(C(=O)O)N3C(=O)C(NC(=O)/C(=C/C(=O)O)c4csc(N)n4)C3SC2)cc1 (stereo not drawn) [Example 10, 7-[2-(2-aminothiazol-4-yl)-2-carboxymethylene-acetamido]-3-(1-methylpyridinium-4-yl)thiomethyl-3-cephem-4-carboxylic acid (E-isomer) trifluoroacetate]	12.5	25	12.5	50	25	0.78	0.78	> 50	3.13	> 50
